Test results published in US10564150B2, “Cell mediated immune response assay” (priority 2012, dated 2020).

Assays:
[1] = tested on: whole blood IFN-gamma response to EBNA-1 from the Epstein-Barr virus; test: QuantiFERON assay measuring anti-EBV cellular immune responses (EBNA-1 peptides) plus/minus trehalose; type: cell-based
Description: Investigations using QuantiFERON technology to measure responses to the model antigen EBNA-1 from the Epstein-Barr virus were performed to assess increases in assay sensitivity induced by the addition of non-reducing sugars to the incubation mixture. Briefly, EBNA-1 peptides were added to a blood collection tube, plus/minus 3 concentrations of a trehalose solution (0.5, 1.0 or 2.0 mg/ml trehalose). QuantiFERON assay measuring anti-EBV cellular immune responses was run according to the manufacturer's instructions. The IFN-gamma response was determined and compared depending on the concentration of trehalose. […] A concentration of 2 mg/ml trehalose provided the best results in this test assay.

[2] = tested on: blood from healthy donors; CD8+ T cells, IFN-gamma response to Cytomegalovirus peptides; test: QFN-CMV assay with addition of trehalose; type: cell-based, human
Description: QuantiFERON (QFN) CMV is a CE registered assay monitoring T cell immune memory directed against antigens derived from the Cytomegalovirus. The QFN-CMV blood tubes contain peptides designed to specifically activate CD8+ T cells to produce interferon gamma (IFN-gamma). These tubes only contain peptide and heparin, with no addition of any sugar molecule.
This experiment aimed to investigate the effect on the IFN-gamma response when the non-reducing sugar, trehalose, was added to QFN-CMV tubes. 0, 1, 5 or 10 mg/ml of a trehalose (in water) solution was added to QFN-CMV blood collection tubes. 1 ml of blood from 17 healthy donors with a known anti-CMV T cell response was then added to each of the four tubes, and in addition a Nil tube and a Mitogen tube were run as controls. The QFN assay was then run according to the package insert. All values had the Nil value subtracted. IFN-gamma levels in IU/ml were normalized against the respective QFN-CMV+0 mg/ml trehalose (untreated control) to generate a ‘fold-change’ unit; to control for inter-donor variation in response magnitude. Healthy donors without a detectable anti-CMV immune response were included to control against non-specific IFN-gamma induction by trehalose.

[3] = tested on: whole blood from donors; IFN-gamma response to CMV antigens; test: QFN CMV assay with four different non-reducing sugars; type: cell-based, human; conditions: for response to the CMV antigens (percentage increase in IFN-gamma IU/ml over the non-additive tube): 2 mg/ml final blood concentration, 5 donors, background subtracted
Description: For this experiment, four different non-reducing sugars were added to QFN CMV antigen tubes and a corresponding Nil tube. To reach a final blood concentration of 2 mg/ml, a corresponding solution of sucrose, trehalose, mannitol and raffinose in PBS was added to whole blood obtained from 5 donors. […] The assay was run in accordance with the QFN package insert which is an established assay. The x-axis (see FIG. 3) indicates the tested conditions. The background (value from Nil tubes with/without the addition of the respective sugar) was subtracted from the corresponding CMV tube and the percentage increase in the IFN-gamma value (IU/ml) over the non-additive tube calculated (y axis).

[4] = tested on: whole blood from subjects with MTB infection; IFN-gamma response to Mycobacterium tuberculosis antigens ESAT-6 and CFP-10; test: QFN-TB antigen tubes manufactured with or without trehalose; type: cell-based, human; conditions: trehalose tube versus sugar free tube; 20 subjects with MTB infection; paired one-tailed t test, P=0.0005

Compound: OC[C@H]1O[C@H](O[C@H]2O[C@H](CO)[C@@H](O)[C@H](O)[C@H]2O)[C@H](O)[C@@H](O)[C@@H]1O [trehalose]
- IFN-gamma response ([1]; 0.5, 1.0 or 2.0 mg/ml trehalose, with increasing concentration): increase in IFN-gamma response
- trehalose concentration providing the best results ([1]; of 0.5, 1.0 and 2.0 mg/ml tested): 2 mg/mL
- mean level of IFN-gamma (fold change versus matched untreated control) ([2]; 0, 1, 5 or 10 mg/ml trehalose, 17 healthy donors with known anti-CMV T cell response, Nil subtracted): concentration-dependent increase
- IFN-gamma fold change versus untreated control, significance ([2]; 5 and 10 mg/ml trehalose, Friedmans test with Dunns multiple comparisons test): significant increase
- background level of IFN-gamma in CMV-negative control donors ([2]; trehalose added, data not shown): No significant increase
- response to the CMV antigens (percentage increase in IFN-gamma IU/ml over the non-additive tube) [3]: increased response
- rank of the increase among the four non-reducing sugars ([3]; 2 mg/ml, order trehalose, mannitol, sucrose, raffinose): highest increase
- quantitative response of the assay (IFN-gamma IU/ml, nil subtracted) [4]: significantly enhanced

Compound: OC[C@@H](O)[C@@H](O)[C@H](O)[C@H](O)CO [mannitol]
- response to the CMV antigens (percentage increase in IFN-gamma IU/ml over the non-additive tube) [3]: increased response

Compound: OC[C@H]1O[C@H](OC[C@H]2O[C@H](O[C@]3(CO)O[C@H](CO)[C@@H](O)[C@@H]3O)[C@H](O)[C@@H](O)[C@@H]2O)[C@H](O)[C@@H](O)[C@H]1O [raffinose]
- response to the CMV antigens (percentage increase in IFN-gamma IU/ml over the non-additive tube) [3]: increased response

Compound: OC[C@H]1O[C@@](CO)(O[C@H]2O[C@H](CO)[C@@H](O)[C@H](O)[C@H]2O)[C@@H](O)[C@@H]1O [sucrose]
- response to the CMV antigens (percentage increase in IFN-gamma IU/ml over the non-additive tube) [3]: increased response
